pKi: −log10 of the molar value.
Columns and labels:
[1] = DPPH radical scavenging assay; conditions: 1 mM, 30 min in the dark
Description: The 2,2-diphenyl-1-picrylhydrazyl (DPPH) radical scavenging capacity of the (Z)-BPT derivatives (1 mM) was investigated using L-ascorbic acid (1 mM, vitamin C) as a positive control. […] L-Ascorbic acid scavenged 97.1% of the DPPH radical, whereas (Z)-BPT derivative 1 with a 4-hydroxyl substituent on the β-phenyl ring scavenged 46.5% of the DPPH radical.
The antioxidant properties of (Z)-BPT derivatives 1–14 against DPPH (2,2-diphenyl-1-picrylhydrazyl) radicals were examined using a DPPH radical scavenging assay, as previously described with minor modifications. DPPH solution (180 µL, 0.2 mM) in methanol was mixed with a (Z)-BPT derivative solution (1–14, 20 µL, 10 mM) in dimethyl sulfoxide in each well of a 96-well plate, and the mixture was kept for 30 min in the dark at room temperature. The absorbance at 517 nm was measured using a VersaMax ™ microplate reader (Molecular Devices, Sunnyvale, CA, USA). The capacity of the derivatives to scavenge DPPH radicals was compared with that of L-ascorbic acid, which was used as the positive control. Each experiment was run independently in triplicates.
Figure 10 The radical scavenging effect of (Z)-BPT derivatives on DPPH. The DPPH radical scavenging activities of test samples (1 mM) were assayed after being left in the dark for 30 min. Distilled water and dimethyl sulfoxide (DMSO) were utilized as the solvents for the positive control L-ascorbic acid and the (Z)-BPT derivatives, respectively. Asterisks (***) represent a significant difference between L-ascorbic acid and the (Z)-BPT derivatives, and results are expressed as the mean ± standard error of three different experiments. *** p < 0.001.

B16F10 cells = test: Cell viability / cytotoxicity, EZ-Cytox assay; assay type: cell-based, murine; conditions: concentrations ≤ 20 µM, 48 and 72 h
Description: Before investigating their inhibitory effects on B16F10 cells, the viability of (Z)-BPT derivatives 1–3 was examined in B16F10 cells.
To determine the cell viability, six different concentrations (0, 1, 2, 5, 10, and 20 µM) of (Z)-BPT derivatives 1–3 were used, and the results were examined at two time points (48 and 72 h). […] Based on the cell viability results, the concentrations for cell-based assays related to the melanin production level and cellular tyrosinase activity were determined.
Cytotoxicity studies of (Z)-BPT derivatives 1–3 were performed on B16F10 melanoma cells using the previously established EZ-Cytox (EZ-3000, DoGenBio, Seoul, Republic of Korea) test, and cytotoxicity studies of (Z)-BPT derivatives 1–3 were conducted on B16F10 melanoma cells. Briefly, B16F10 cells were seeded in a 96-well plate at a density of 1 × 10^4 cells/well and cultivated at 37 °C for 24 h in a humid environment with 5% CO2. […] The cells were then incubated at 37 °C for 2 h after 10 µL of the EZ-Cytox solution had been added to each well. To determine the cell viability, the absorbance of each well was measured at 450 nm using a microplate reader (VersaMax^TM, Molecular Devices, Sunnyvale, CA, USA). Each assay was performed in triplicates.
Figure 6 Effects of (Z)-BPT derivatives 1–3 on cell viability in B16F10 cells. Cytotoxic effects were measured using an EZ-Cytox assay at six different concentrations (0, 1, 2, 5, 10, and 20 µM) of 1–3. (A) Derivative 1; (B) Derivative 2; (C) Derivative 3. *** p < 0.001 for non-treated cells vs. cells treated with 3.

mushroom tyrosinase = mushroom tyrosinase (Agaricus bisporus, UniProt C7FF04); test: Kinetic studies on mushroom tyrosinase inhibition (Lineweaver–Burk and Dixon plots, L-DOPA substrate); assay type: biochemical; design: purchased Sigma-Aldrich; conditions: for pKi: Dixon plots, read-out: Ki (inhibition constant); for Inhibition type: Lineweaver–Burk plot
Description: As depicted in Figure 2, the mechanisms of tyrosinase inhibition were analyzed using Lineweaver–Burk plots. […] Each of the four straight lines produced at each inhibitor concentration converged to a single point on the y-axis. […] In contrast, in derivative 3, four straight lines generated at each inhibitor concentration intersected at a point in the second quadrant. According to the Lineweaver–Burk plot, as the inhibitor concentration increased, the Vmax value of 3 decreased, but the KM value increased.
To determine the Ki (inhibition constant) values of (Z)-BPT derivatives 1–3, Lineweaver–Burk plots for 1–3 were transformed into the corresponding Dixon plots (Figure 3). Each Dixon plot obtained from each Lineweaver–Burk plot produced four straight lines that intersected at one point in the second quadrant. The vertical lines from the merge point to the x-axis provide the Ki value of each (Z)-BPT derivative.
To determine the mode of action, Lineweaver–Burk plots of (Z)-BPT derivatives 1–3 were acquired. In brief, 10 µL of (Z)-BPT derivatives 1–3 (final concentrations:0, 3, 6, or 12 µM for 1; 0, 0.05, 0.1, or 0.2 µM for 2; 0, 2.5, 5, or 10 µM for 3) was added to a 96-well plate containing a substrate mixture (170 µL) consisting of an aqueous solution of L-dopa at final concentrations of 0.5, 1.0, 2.0, or 4.0 mM and 14.7 mM potassium phosphate buffer (pH 6.5), and a mushroom tyrosinase aqueous solution (20 µL, 20 units). Using a microplate reader (VersaMax^TM, Molecular Devices, Sunnyvale, CA, USA) to measure the increase in absorbance at a wavelength of 492 nm (ΔOD492/min), the initial rate of dopachrome synthesis in the reaction mixture was estimated. Using five different concentrations of L-dopa, Lineweaver–Burk plots (inverse of the response rate (1/V) vs. inverse of L-dopa concentration (1/(S)) were created. The convergence points of the four plot lines were used to define the mode of action of tyrosinase inhibition.
Figure 2 Lineweaver–Burk plots for the inhibition of mushroom tyrosinase activity by (Z)-BPT derivatives 1–3. […] Three independent experiments with five different concentrations (0.5, 1, 2, 4, and 8 mM) of an L-DOPA substrate were used to measure the augmented dopachrome optical density per minute at 492 nm. The data are shown as mean values of 1/V (an inverse of that optical density per minute). The (Z)-BPT derivatives were used at concentrations of 0 (filled circles), 3 (unfilled circles), 6 (filled triangles), and 12 µM (unfilled triangles) for 1; 0 (filled circles), 0.05 (unfilled circles), 0.1 (filled triangles), and 0.2 µM (unfilled triangles) for 2; and 0 (filled circles), 2.5 (unfilled circles), 5 (filled triangles), and 10 µM (unfilled triangles) for 3. Each experiment was run independently in triplicates.
Figure 3 Dixon plots for the inhibition of mushroom tyrosinase activity by (Z)-BPT derivatives 1–3. The Ki values of (Z)-BPT derivatives 1–3 were obtained from the absolute values of the x-coordinate where four straight lines converged at one point. Three independent experiments with four different concentrations of (Z)-BPT derivatives were conducted to measure the augmented dopachrome optical density per minute at 492 nm. The data are shown as the mean values of 1/V (an inverse of that optical density per minute). The (Z)-BPT derivatives were used at concentrations of 0, 3, 6, and 12 µM for 1; 0, 0.05, 0.1, and 0.2 µM for 2; and 0, 2.5, 5, and 10 µM for 3. The experiments were performed at four different concentrations (0.5, 1, 2, and 4 mM) of L-DOPA. Each experiment was run independently in triplicates.

Sequence of mushroom tyrosinase (C7FF04 1-392 limits assumed): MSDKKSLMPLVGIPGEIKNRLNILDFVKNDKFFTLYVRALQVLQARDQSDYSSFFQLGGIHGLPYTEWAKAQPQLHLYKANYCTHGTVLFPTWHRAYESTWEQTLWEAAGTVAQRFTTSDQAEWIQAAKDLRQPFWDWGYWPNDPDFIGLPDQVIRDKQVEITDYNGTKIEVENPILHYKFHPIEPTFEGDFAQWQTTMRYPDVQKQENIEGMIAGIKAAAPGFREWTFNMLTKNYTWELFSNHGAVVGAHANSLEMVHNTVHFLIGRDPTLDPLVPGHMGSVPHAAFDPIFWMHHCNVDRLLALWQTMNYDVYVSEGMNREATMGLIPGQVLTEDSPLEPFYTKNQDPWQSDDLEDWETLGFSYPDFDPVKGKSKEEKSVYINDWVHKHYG

| Structure (SMILES) | DPPH radical scavenging activity [1] | cytotoxicity (B16F10 cells) | pKi (mushroom tyrosinase) | Inhibition type (mushroom tyrosinase) |
| --- | --- | --- | --- | --- |
| O=C1N=C(c2ccccc2)S/C1=C\c1ccc(O)cc1 [Compound 1, (Z)-5-(4-Hydroxybenzylidene)-2-phenylthiazol-4(5H)-one] | 46.5% | did not show any perceptible cytotoxicity | 5.05 | Competitive |
| O=C1N=C(c2ccccc2)S/C1=C\c1ccc(O)cc1O [Compound 2, (Z)-5-(2,4-Dihydroxybenzylidene)-2-phenylthiazol-4(5H)-one] | 66.9% | did not show any perceptible cytotoxicity | 7.00 | Competitive |

Source: publication PMC10144242, “Design, Synthesis, In Vitro, and In Silico Insights of 5-(Substituted benzylidene)-2-phenylthiazol-4(5H)-one Derivatives: A Novel Class of Anti-Melanogenic Compounds” (Molecules, 2023)
